Literature values, collected in patent publication US6346251B1 (priority 1999, dated 2002).

Columns and labels:
[1] = system: human epidermoid cells, virally infected with HSV-2
[2] = system: human epidermoid cells
[3] = system: cancer; details: Phase II testing

Row | SMILES | Trichothecene Concentrations, Protein Synthesis Inhibition 50% [1] [ng/mL] | Trichothecene Concentrations, Protein Synthesis Inhibition 80% (PIC80) [1] [ng/mL] | Trichothecene Concentrations, Protein Synthesis Inhibition 85% (PIC85) [1] [ng/mL] | Trichothecene Concentrations, Protein Synthesis Inhibition 90% (PIC90) [1] [ng/mL] | hyperactive protein synthesis inhibited [1] [%] | Trichothecene Concentrations, PIC100 max [2] [ng/mL] | concentrations that did not reduce cell viability [2] | nontoxic zone [2] [ng/mL] | safe level [2] [ng/mL] | hematologic toxicity [3] | tumor response [3]
1 | CC(=O)OC[C@]12CCC(C)=C[C@H]1O[C@@H]1[C@H](O)[C@@H](OC(C)=O)[C@@]2(C)[C@]12CO2 [DAS] | 2.3 | 4.0 | 4.2 | 4.5 | ~99 | 200 | up to 200 ng/ml | < 200 | 200 | – | –
2 | CC(=O)OC[C@]12CCC(C)=C[C@H]1O[C@@H]1[C@H](O)[C@@H](OC(C)=O)[C@@]2(C)[C@]12CO2 [Anguidine] | – | – | – | – | – | – | – | – | – | considerable hematologic toxicity | low tumor response
